#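 Each compound was tested at five concentrations against cells in 96-well plates for 48 hours. At the TGI there is no net growth.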
# Experiments:
# Test in all cases: inhibition of tumour cell growth, NCI panel, 48 h
# [1] = tested on: M14 melanoma
# [2] = tested on: NCI-H226 lung
# [3] = tested on: K-562 leukemia
# [4] = tested on: MCF7 breast
# [5] = tested on: U251 CNS
# [6] = tested on: PC-3 prostate
# [7] = tested on: RPMI-8226 leukemia
# [8] = tested on: SR leukemia
# [9] = tested on: HCT-116 colon
# [10] = tested on: UACC-257 melanoma
# [11] = tested on: HCT-15 colon
# [12] = tested on: COLO 205 colon
# [13] = tested on: SF-295 CNS
# [14] = tested on: MALME-3M melanoma
# [15] = tested on: SF-268 CNS
# [16] = tested on: CAKI-1 renal
# [17] = tested on: 786-0 renal
# [18] = tested on: MDA-N
# [19] = tested on: UACC-62 melanoma
# [20] = tested on: KM12 colon
# [21] = tested on: OVCAR-5 ovarian
# [22] = tested on: SNB-19 CNS
# [23] = tested on: T-47D breast
# [24] = tested on: SW-620 colon
# [25] = tested on: HT29 colon
# [26] = tested on: OVCAR-3 ovarian
# [27] = tested on: LOX IMVI melanoma
# [28] = tested on: NCI/ADR-RES ovarian
# [29] = tested on: MOLT-4 leukemia
# [30] = tested on: HOP-92 NSCLC
# [31] = tested on: IGROV1 ovarian
# [32] = tested on: ACHN renal
# [33] = tested on: NCI-H23 lung
# [34] = tested on: HOP-62 NSCLC
# [35] = tested on: SK-MEL-28 melanoma
# [36] = tested on: DU-145 prostate
# [37] = tested on: UO-31 renal
# [38] = tested on: CCRF-CEM leukemia
# [39] = tested on: RXF 393 renal
# [40] = tested on: NCI-H460 lung
# [41] = tested on: HL-60(TB) leukemia
# [42] = tested on: SK-OV-3 ovarian
# [43] = tested on: TK-10 renal
# [44] = tested on: HCC-2998 colon
# [45] = tested on: EKVX NSCLC
# [46] = tested on: A498 renal
# [47] = tested on: SK-MEL-2 melanoma
# [48] = tested on: HS 578T breast
# [49] = tested on: OVCAR-4 ovarian
# [50] = tested on: A549 NSCLC
# [51] = tested on: SK-MEL-5 melanoma
# [52] = tested on: MDA-MB-435
# [53] = tested on: NCI-H522 lung
# [54] = tested on: SF-539 CNS
# [55] = tested on: SN12C renal
smiles,measurement,setting,value
COc1ccc(/C=C/c2ccnc3ccccc23)cc1,TGI,[1],31.7 µM
same,TGI,[2],38.2 µM
same,TGI,[3],23.2 µM
same,TGI,[4],31.4 µM
same,TGI,[5],31.9 µM
same,TGI,[6],39.7 µM
same,TGI,[7],45 µM
same,TGI,[8],61.1 µM
same,TGI,[9],29.1 µM
same,TGI,[10],31.4 µM
same,TGI,[11],39.6 µM
same,TGI,[12],31.1 µM
same,TGI,[13],32.7 µM
same,TGI,[14],30.6 µM
same,TGI,[15],30.4 µM
same,TGI,[16],31.6 µM
same,TGI,[17],30.6 µM
same,TGI,[18],31.6 µM
same,TGI,[19],29.2 µM
same,TGI,[20],30.1 µM
same,TGI,[21],36.5 µM
same,TGI,[22],36.8 µM
same,TGI,[23],37.4 µM
same,TGI,[24],36.3 µM
same,TGI,[25],23.1 µM
same,TGI,[26],26.3 µM
same,TGI,[27],31 µM
same,TGI,[28],33.6 µM
same,TGI,[29],34 µM
same,TGI,[30],16.5 µM
same,TGI,[31],32.5 µM
same,TGI,[32],27 µM
same,TGI,[33],30.6 µM
same,TGI,[34],35.9 µM
same,TGI,[35],29.4 µM
same,TGI,[36],28 µM
same,TGI,[37],0.0937 µM
same,TGI,[38],28.7 µM
same,TGI,[39],35.4 µM
same,TGI,[40],47.7 µM
same,TGI,[41],20.1 µM
same,TGI,[42],33.5 µM
same,TGI,[43],31.7 µM
same,TGI,[44],36.6 µM
same,TGI,[45],25.8 µM
same,TGI,[46],27.9 µM
same,TGI,[47],38.4 µM
same,TGI,[48],48.8 µM
same,TGI,[49],19.9 µM
same,TGI,[50],30.8 µM
same,TGI,[51],27.5 µM
same,TGI,[52],31.2 µM
same,TGI,[53],36.6 µM
same,TGI,[54],37.6 µM
same,TGI,[55],32.7 µM

# Reference: PubChem BioAssay (NCI)
